Results on 4 compounds are retold here after article PMC9999251, “Pyrazole-based lamellarin O analogues: synthesis, biological evaluation and structure–activity relationships” (RSC Advances, 2023).

For data set [1], the system named is HCT116 cells. Kind of data set: Cell cycle distribution by flow cytometry (FACS). It counts as cell-based, human. The settings on record: HCT116, 72 h, lowest concentration of 5 μM; for G2/M phase: negative control 14.2 ± 1.1%; for G1 phase: negative control 49.5 ± 1.8%. As to the method:
HCT116 cells (40 000 cells per well) were treated with the test compounds (6c, 6m) for 72 h in the concentration range of 5, 10 and 20 μM. After treatment cells were washed with DPBS (Sigma; modified, without calcium chloride and magnesium chloride) and trypsinized using a trypsin–EDTA solution (Gibco™, 0.05%). After additional washing with DPBS, cells were stained at +4 °C overnight using PI/HFS solution (50 μg mL^−1).[67] Samples were then analysed using Guava® easyCyte™ 8HT (Merck Millipore) flow cytometer with Guava Clean 3.1 software. The amount of debris was in the range of 9.2 ± 2.0%.

The target of another data set is T1, human serum albumin (Homo sapiens, UniProt P02768).
T1 construct: purchased Chiral Technologies, DAICEL Group, Europe SAS, France CHIRALPAK®HAS (50 × 3 mm, 5 μm)
T1 sequence (P02768 25-609): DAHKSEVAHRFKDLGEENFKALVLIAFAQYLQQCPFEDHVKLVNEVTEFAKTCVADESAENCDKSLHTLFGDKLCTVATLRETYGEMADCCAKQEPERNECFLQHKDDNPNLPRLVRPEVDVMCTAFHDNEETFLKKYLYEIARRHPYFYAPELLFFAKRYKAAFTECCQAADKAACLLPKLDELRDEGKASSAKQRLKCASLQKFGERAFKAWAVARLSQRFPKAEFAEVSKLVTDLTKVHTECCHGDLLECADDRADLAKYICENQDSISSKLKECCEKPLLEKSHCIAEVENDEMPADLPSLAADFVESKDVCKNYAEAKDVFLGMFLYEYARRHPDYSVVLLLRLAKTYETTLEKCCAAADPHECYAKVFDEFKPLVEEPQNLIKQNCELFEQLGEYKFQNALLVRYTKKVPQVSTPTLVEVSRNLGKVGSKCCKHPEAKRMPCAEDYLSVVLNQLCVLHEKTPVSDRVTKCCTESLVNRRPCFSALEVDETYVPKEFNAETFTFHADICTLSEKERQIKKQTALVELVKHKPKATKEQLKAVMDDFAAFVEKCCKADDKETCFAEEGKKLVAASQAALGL
Put plainly: Plasma protein binding (PPB), HPLC on albumin-bound stationary phase. It counts as in vitro ADME. The settings on record: pH 7.4, binding to human serum albumin, HPLC method. As to the method:
Retention times of the analytes were measured with Shimadzu HPLC system on the CHIRALPAK®HAS stationary phase (50 × 3 mm, 5 μm, Chiral Technologies, DAICEL Group, Europe SAS, France). The mobile phase A consisted of 50 mM aqueous ammonium acetate buffer (pH 7.4) and phase B of 2-propanol according to Valko et al.[65] Analysis was performed at prolonged 1 mL min^−1 flow rate in the linear gradient. Retention capacity factors (k′) were calculated by using DMSO or a substance with 0% HAS binding for systems' dead time (Rt0). The system was calibrated by injecting the reference compounds: acetylsalicylic acid (CAS 69-72-7), betamethasone (CAS 378-44-9), budesonide (CAS 5133-22-3), carbamazepine (CAS 298-46-4), cimetidine (CAS 51481-61-9), ciprofloxacin (CAS 85721-33-1), indomethacin (CAS 53-86-1), isoniazid (CAS 54-85-3), metronidazole (CAS 443-48-1), nicardipine (CAS 55985-32-5), nizatidine (CAS 76963-41-2) and warfarin (CAS 81-81-2) obtained from Sigma-Aldrich, diclofenac (CAS 15307-86-5) from EMD Chemicals Inc., flumazenil (CAS 78755-81-4) from ABX and ketoprofen (CAS 22071-15-4) from LKT Labs. The logarithmic capacity factors of the references' Rt (log(k′)) on the HSA column were plotted against the %PPB values from literature. The slope and the intercept were used to convert the log(k′) of the compounds (6a, c, f, h, m–o) to %PPB using the regression equation.[66]

Data set [2] in a line: Determination of HPLC–log P. It counts as physicochemical. The settings on record: reversed-phase HPLC on apHera C18 column; methanol / 0.01 M phosphate buffer pH 7.4; mean ± SD. On the procedure:
HPLC–log P values were determined using Shimadzu HPLC system equipped with apHera C18 column (10 × 6 mm, 5 μm, Supelco, Bellefonte, PA, USA). Each sample was dissolved in the internal standard mixture, consisting of triphenylene (99.9%, Carl Roth) and toluene (≥98%, Sigma-Aldrich). Analysis was performed at 1.5 mL min^−1 flow rate in the linear gradient where mobile phase consisted of methanol and 0.01 M phosphate buffer (pH 7.4). The HPLC–log P values were calculated from the measured retention times using previously published equation.[57]

In data set [3] the test system is HCT116 cells. Kind of data set: Viability staining via Calcein AM/Hoechst/PI, HCT116. It counts as cell-based, human. Particulars: 20 µM, 24 h (Fig. S134 legend), method block: 4 μM, 96 h. On the procedure:
(§1) SW480, HT29 and HCT116 cells were seeded in 24-well plates in a cell density of 6000 cells per well and settled for 24 h. […] Cells were stained with propidium iodide (Sigma Aldrich, final concentration 2 μg mL^−1) and Hoechst 33342 (ThermoFisher Scientific, final concentration 0.5 μM) for 60 min and with Calcein AM (Merck, BioReagent, final concentration 50 μM) for 15 min, washed two times with PBS and finally covered with PBS for further analysis. Fluorescence microscopic evaluation was performed on a Evos FL Cell Imaging System (ThermoFisher Scientific).

The test system of data set [4] is HT29 cells. Kind of data set: Viability staining via Calcein AM/Hoechst/PI, HT29. It counts as cell-based, human. The settings on record: 20 µM, 24 h (Fig. S136 legend), method block: 4 μM, 96 h. As to the method: SW480, HT29 and HCT116 cells were seeded in 24-well plates in a cell density of 6000 cells per well and settled for 24 h. Afterwards cells were treated with 4 μM of test compounds 6a, c, f, h, m–o for 96 h. Cells were stained with propidium iodide (Sigma Aldrich, final concentration 2 μg mL^−1) and Hoechst 33342 (ThermoFisher Scientific, final concentration 0.5 μM) for 60 min and with Calcein AM (Merck, BioReagent, final concentration 50 μM) for 15 min, washed two times with PBS and finally covered with PBS for further analysis. Fluorescence microscopic evaluation was performed on a Evos FL Cell Imaging System (ThermoFisher Scientific).

Data set [5] deals with SW480 cells. Kind of data set: Cell viability (MTT assay), SW480. It counts as cell-based. The settings on record: Homo sapiens, SW480, 96 h, 96 h treatment, read-out: GI50 ± SD SW480. On the procedure:
(§2) SW480 (human colon adenocarcinoma, adherent, epithelial, ATCC number: CCL-228), HT29 (human colon adenocarcinoma, adherent, epithelial, ATCC number: HTB-38), and HCT116 (human colon adenocarcinoma, adherent, epithelial-like, ATCC number: CCL-247) cells were maintained in RPMI-1640 medium (Sigma-Aldrich). Medium was supplemented with heat-inactivated FBS (Biowest), penicillin–streptomycin (Sigma; with 10 000 units penicillin and 10 mg streptomycin per mL in 0.9% NaCl) and L-glutamine (Sigma; 200 mM solution). Cell cultures were cultivated at 37 °C, maintaining a humidified atmosphere consisting of 5% CO2. Gibco™ trypsin–EDTA (0.05%) was used for cell passage.
(§3) To evaluate cell viability, SW480, HT29, and HCT116 cells were harvested from culture flasks by trypsinization and seeded into 96-well plates in 4000 cells per well, 3000 cells per well and 4000 cells per well densities, respectively. After 24 h preincubation period, cells were treated in triplicates with nine different doses of each compound (6a–o and 7a–c) for 96 h. After treatment compound solutions were replaced with MTT solution (MTT reagent in PBS, […]) diluted in a 6 : 1 ratio in non-supplemented RPMI-1640 medium and were additionally incubated for 2 h. After incubation, the medium was removed, and formazan product was dissolved in DMSO. Optical densities were measured at 550 nm with TECAN Infinite® M200 PRO microplate reader using a reference wavelength of 690 nm to correct unspecific absorption. The quantity of viable cells was normalized to untreated controls. The GI50 values were calculated from dose–response curves.

Data set [6] deals with SW480 cells. Kind of data set: Viability staining via Calcein AM/Hoechst/PI, SW480. Format: cell-based, human. The settings on record: 20 µM, 24 h (Fig. S135 legend), method block: 4 μM, 96 h. On the procedure: as §1
The test system of data set [7] is HCT116 cells. Kind of data set: Cell viability (MTT assay), HCT116. It counts as cell-based. The settings on record: Homo sapiens, HCT-116, 96 h treatment, read-out: GI50 ± SD HCT116. On the procedure: as §2, §3
Data set [8] relates to HT29 cells. Kind of data set: Cell viability (MTT assay), HT29. The settings on record: Homo sapiens, HT-29, 96 h treatment, read-out: GI50 ± SD HT29. It counts as cell-based. As to the method: as §2, §3
Another data set relates to SW620/Ad300. Also noted: method as in PMID 24979269. The settings on record: SW620/Ad300 multi-drug resistant daughter cell line; read-out: IC50 cytotoxicity; cited from earlier work.
Another data set deals with SW620. Also noted: method as in PMID 24979269. Particulars: SW620 colorectal cancer cells; read-out: IC50 cytotoxicity; cited from earlier work.

Turning to `CCOC(=O)c1c(-c2ccccc2)c(-c2ccccc2)nn1CC(=O)c1ccc(F)cc1` [Compound 6c, Ethyl 1-[2-(4-fluorophenyl)-2-oxoethyl]-3,4-diphenyl-1H-pyrazole-5-carboxylate], the melting point lay in the range of 114 to 115 °C. Moreover, in the data set with HCT116 cells [1], the G2/M phase is reported as 25.0 ± 0.5% and the G1 phase was determined as 63.2 ± 1.4%. The same compound showed a fraction unbound on human serum albumin of 0.04. In data set [2], this compound came in with a chromatographic logP of 4.453 ± 0.005. The “PI staining (necrosis)” value in the data set with HCT116 cells [3] was “no involvement of necrosis”. The “PI staining (necrosis)” value in the data set on HT29 cells [4] is on record as “no involvement of necrosis”. Further, in the data set with SW480 cells [5], the GI50 was found to be 5.52 ± 3.72 µM. Also, in the data set on SW480 cells [6], the “PI staining (necrosis)” value is reported as “no involvement of necrosis”. In the data set with HCT116 cells [7], the GI50 is 1.96 ± 0.266 µM. In addition, the GI50 in the data set on HT29 cells [8] was 4.98 ± 2.62 µM.
For the compound `CCOC(=O)c1c(-c2ccccc2)c(-c2ccc(F)cc2)nn1CC(=O)c1ccc(F)cc1` [Compound 6m, Ethyl 3-(4-fluorophenyl)-1-[2-(4-fluorophenyl)-2-oxoethyl]-4-phenyl-1H-pyrazole-5-carboxylate], the melting point was in the range of 104 to 105 °C. In the data set with HCT116 cells [1], this compound returned a G2/M phase of 26.9 ± 0.8% and a G1 phase of 61.0 ± 1.8%. The fraction unbound on human serum albumin was 0.034. The compound further yielded a chromatographic logP in data set [2] of 4.545 ± 0.006. Also, the “PI staining (necrosis)” value with HCT116 cells [3] is “no involvement of necrosis”. Moreover, in the data set with HT29 cells [4], the “PI staining (necrosis)” value is “no involvement of necrosis”. Also, the GI50 in the data set on SW480 cells [5] was 1.44 ± 0.173 µM. In addition, in the data set with SW480 cells [6], the “PI staining (necrosis)” value is given as “no involvement of necrosis”. In the data set on HCT116 cells [7], the GI50 was found to be 1.46 ± 0.247 µM. In addition, the GI50 in the data set on HT29 cells [8] came to 2.69 ± 0.11 µM.
In turn, `CCOC(=O)c1c(-c2ccc(F)cc2)c(-c2ccc(F)cc2)nn1CC(=O)c1ccc(F)cc1` [Compound 6o, Ethyl 3,4-bis(4-fluorophenyl)-1-[2-(4-fluorophenyl)-2-oxoethyl]-1H-pyrazole-5-carboxylate] registered a melting point of 105 to 106 °C. The compound further showed a free fraction (fraction unbound) on human serum albumin of 0.029. Also, in data set [2], the chromatographic logP was 4.598 ± 0.004. Further, in the data set on SW480 cells [5], the GI50 was 2.09 ± 0.032 µM. The GI50 in the data set with HCT116 cells [7] came out at 2.36 ± 0.039 µM. In the data set on HT29 cells [8], the 50% growth inhibitory concentration (GI50) is 6.67 ± 2.12 µM.
On to `COC(=O)c1c(-c2ccc(O)cc2)c(-c2ccc(O)cc2)cn1CC(=O)c1ccc(OC)cc1` [Lamellarin O], for which the IC50 was 22.3 µM in the data set with SW620/Ad300 and 20 µM with SW620.
